Series [1] has as its system A. baumannii ATCC19606. To be noted: for Minimum Inhibitory Concentration (MIC): A. baumannii 19606, sensitive; for MIC values of outer membrane permeabilizers and colistin: A. baumannii 19606.
The test system of another series is HepG2 cell line. The experiment in a line: MTT cell viability assay. Format: cell-based, human. Details: key to Mean cell viability (Mean 2; control = 100): % viability relative to control (control = 100%). Conditions: for Mean cell viability (Mean 2; control = 100): mean of n = 3. The method, then: We aimed to determine the effects of peptides on cell viability and proliferation in the human hepatocellular carcinoma HepG2 cell line. The MTT assay was performed as described by [Muangpat et al. (2022)] with some modifications. The cells were cultured in Dulbecco’s Modified Eagle Medium (DMEM; Sigma-Aldrich, St. Louis, MO, USA), supplemented with 10% fetal bovine serum (FBS), 100 U/ml penicillin, and 100 μg/ml streptomycin at 37 °C in 5% CO^2 and 95% humidity. The cells were seeded into a 96-well plate at a density of 1 × 10^4 cells/well and allowed to adhere overnight. Then, the cells were exposed for 24 h to various concentrations of peptides. The control cells were cultured in complete DMEM medium containing 0.2% DMSO. After the 24-h incubation period, 20 μL of MTT solution (5 mg/mL in PBS) (Tokyo Chemical Industry Co., Ltd., Tokyo, Japan) was added to each well and incubated for another 2 h at 37 °C. The culture medium was then removed, and formazan crystals formed by viable cells were dissolved in 100 μL of DMSO before measuring the absorbance at 590 nm using a microplate spectrophotometer. The effect of the peptide on cell viability was calculated as a percentage of the control, which was arbitrarily assigned a value of 100% viability. The percentage of cell viability was calculated relative to the control group. The IC₅₀ of the peptides was defined as the concentration that caused a 50% reduction in cell viability compared with the control. The MTT assay was conducted in three independent experiments, each with triplicate wells per condition.
(In general: Tetrazolium dyes change colour on reduction, which living cells bring about.)

The test system of series [2] is twenty biofilm-forming A. baumannii strains. The experiment in a line: Inhibition of biofilm formation (crystal violet). The class given is cell-based, Acinetobacter baumannii. Details: Percent biofilm forming inhibition: concentration or dose not given beside the values. To be noted: for average percent inhibition of biofilm formation: twenty A. baumannii strains, peptide at MIC (312.5, 156.25, 156.25 µg/mL), 24 h, crystal violet OD595. The method, then: We determined the ability of peptides to inhibit biofilm formation in twenty biofilm-forming strains using the method described by [Karyne et al. (2020)] with some modifications. Briefly, biofilm-forming strains of A. baumannii were adjusted to an equivalent of the 0.5 McFarland standard in 2× Luria Bertani (LB) broth supplemented with 20% glucose. Then, 50 µL of A. baumannii and 50 µL of peptides were added. […] The plates were incubated overnight at 37 °C. After 24 h of incubation, the culture medium was gently removed, and the wells were washed three times with phosphate-buffered saline. The adherent cells were fixed with absolute methanol for 10 min, stained with 0.4% crystal violet for 15 min, and washed three times with sterile distilled water, then air-dried. The plates were then filled with 250 µL of 33% acetic acid for 15 min. The absorbance at OD595 nm was determined. All experiments were performed in three independent assays, each repeated in triplicate, and the percentage of biofilm reduction was calculated based on treated wells vs. non-treated wells.

The test system of another series is Escherichia coli. To be noted: E. coli, sensitive.
Another series has as its system Klebsiella pneumoniae. To be noted: K. pneumoniae, sensitive.
A further series deals with Pseudomonas aeruginosa. Conditions: P. aeruginosa, sensitive.
Another series concerns Staphylococcus aureus. Conditions: S. aureus, sensitive.
In another series the test system is Bacillus subtilis. Conditions: B. subtilis, sensitive.
Series [3] relates to A. baumannii ATCC19606. Conditions: for FIC index, peptide plus colistin: ATCC19606; for MIC alone: ATCC19606, checkerboard, agent alone.
[4] abbreviates: A. baumannii 19,606, microdilution, MHB, 37 °C overnight, triplicate samples.
[5] abbreviates: microdilution, triplicate samples.

Converted amounts (≈) assume the structure as drawn. Read-outs that look alike come from different tables or passages of the source. Where a SMILES comes first, the peptide text is derived from it. Bridges are numbered along the chain shown (N, C = ends). Where no end group is shown, it is not given here. [ ]: non-standard residue; d: D form. The star is where a group is joined. X1 = CC[C@H](C)CCCCC(=O)*; Dab = NCC[C@H](N)C(=O)O

Consider eleven compounds from PMC11674141, “Antimicrobial activity and synergistic effect of phage-encoded antimicrobial peptides with colistin and outer membrane permeabilizing agents against Acinetobacter baumannii” (PeerJ, 2024).

Take `CC[C@H](C)[C@H](NC(=O)[C@H](CCCNC(=N)N)NC(=O)[C@H](CC(N)=O)NC(=O)[C@@H](N)CCCCN)C(=O)N[C@H](C(=O)NCC(=O)N1CCC[C@H]1C(=O)N[C@H](C(=O)N[C@@H](Cc1ccc(O)cc1)C(=O)N[C@@H](C)C(=O)N[C@@H](CCCCN)C(=O)N[C@@H](CS)C(=O)N[C@@H](CC(N)=O)C(=O)N[C@@H](CCCNC(=N)N)C(=O)N[C@@H](CO)C(=O)N[C@@H](CCCNC(=N)N)C(=O)N[C@@H](CCC(N)=O)C(=O)N[C@@H](CCSC)C(=O)N[C@@H](C)C(=O)N[C@@H](CC(C)C)C(=O)N[C@@H](CCC(=O)O)C(=O)N[C@@H](CC(N)=O)C(=O)N[C@@H](CCSC)C(=O)N[C@@H](C)C(=O)N[C@@H](Cc1ccccc1)C(=O)O)C(C)C)[C@@H](C)CC` [PTL02]: the MIC values with A. baumannii ATCC19606 [1] (setting [4]) was 5,000 ug/ml. Besides, the “MIC (ATCC19606)” value in the series on A. baumannii ATCC19606 [1] (A. baumannii ATCC19606) was 5000 µg/mL (≈ 1720 µM).

In the case of LIAIQIAIKGMLNGWFTGVGFRRKR [PE04-1], the “IC50 (reduction of viable cells to 50%)” value in the series with HepG2 cell line (24 h, three independent experiments) is recorded as 1,440 ug/ml. Also, the “Percent biofilm forming inhibition” value amounted to 92.1075% in series [2] (strain AB23, MDR-AB / CR-AB, 2013) and 61.4919% in [2] (strain CR65-47, MDR-AB / CR-AB, 2022). In addition, the “average percent inhibition of biofilm formation” value in series [2] turned out to be 58.11%. For the same compound, the “Minimum Inhibitory Concentration (MIC)” value in the series with A. baumannii ATCC19606 [1] amounted to 312.5 µg/mL; in the series with MDR-AB, XDR-AB (strain AB003, MDR-AB), 312.5 µg/mL; with MDR-AB, XDR-AB (strain AB183, XDR-AB) it was 156.25 µg/mL; with MDR-AB, XDR-AB (strain AB329, XDR-AB), 625 µg/mL; in the series on MDR-AB, XDR-AB (strain CR89, MDR-AB), 312.5 µg/mL; in the series with Escherichia coli it was 2500 µg/mL. In addition, the “Minimum Inhibitory Concentration (MIC)” value in the series with Klebsiella pneumoniae amounted to 2500 µg/mL; in the series on Pseudomonas aeruginosa it was 2500 µg/mL; in the series on Staphylococcus aureus, 39.06 µg/mL; with Bacillus subtilis it was 39.06 µg/mL. The compound further registered an MIC values in the series with A. baumannii ATCC19606 [1] (setting [4]) of 312.5 µg/mL. Besides, the “MIC (ATCC19606)” value in the series on A. baumannii ATCC19606 [1] (A. baumannii ATCC19606) was 312.5 µg/mL. Also, the “FIC index, peptide plus colistin” value with A. baumannii ATCC19606 [3] is 0.19.

On to WNKGRVKGKLEVIPGLTNRRKKEKA [PE02-2], for which, in the series with A. baumannii ATCC19606 [1] (ATCC19606), the “MIC (ATCC19606)” value was 1250 µg/mL and the MIC values was 1,250 ug/ml.

On to “LIAIQIAIKGMLNGWFTGVGFRRKR-NH2 [PE04-1(NH2)]”, for which the “Mean cell viability (Mean 2; control = 100)” value in the series on HepG2 cell line (peptide concentration 25 (unit not given)) stood at 94.88; with HepG2 cell line (peptide concentration 50 (unit not given)) it was 86.43; in the series on HepG2 cell line (peptide concentration 156.25 (unit not given)), 81.93; in the series on HepG2 cell line (peptide concentration 300 (unit not given)), 76.66; with HepG2 cell line (peptide concentration 600 (unit not given)), 49.65; in the series with HepG2 cell line (peptide concentration 800 (unit not given)), 28.83. The “Percent biofilm forming inhibition” value in [2] (strain AB263, MDR-AB, 2014) was determined as 89.6713%. Further, the “average percent inhibition of biofilm formation” value in series [2] was determined as 75.51%. Moreover, the “Minimum Inhibitory Concentration (MIC)” value in the series on A. baumannii ATCC19606 [1] is 156.25 µg/mL; in the series on MDR-AB, XDR-AB (strain AB003, MDR-AB), 156.25 µg/mL; with MDR-AB, XDR-AB (strain AB183, XDR-AB), 156.25 µg/mL; in the series on MDR-AB, XDR-AB (strain AB329, XDR-AB) it was 312.5 µg/mL; in the series on MDR-AB, XDR-AB (strain CR89, MDR-AB), 312.5 µg/mL; in the series with Escherichia coli it was 156.25 µg/mL. In addition, the “Minimum Inhibitory Concentration (MIC)” value amounted to 625 µg/mL in the series with Klebsiella pneumoniae, 2500 µg/mL with Pseudomonas aeruginosa, 39.06 µg/mL in the series with Staphylococcus aureus and 19.531 µg/mL in the series with Bacillus subtilis. Moreover, in the series with A. baumannii ATCC19606 [1] (setting [4]), the MIC values is 156.25 µg/mL. Also, in the series on A. baumannii ATCC19606 [1] (A. baumannii ATCC19606), the “MIC (ATCC19606)” value was 156.25 µg/mL. The “FIC index, peptide plus colistin” value in the series with A. baumannii ATCC19606 [3] turned out to be 0.19.

Regarding KRQTLADKKERKKFHDGLMLNDNIR [PIN02], in the series on A. baumannii ATCC19606 [1] (ATCC19606), the “MIC (ATCC19606)” value was > 5000 µg/mL and the MIC values is listed as >5,000 ug/ml.

In the case of ENMRNRKWNSTDTVMRRSRFQRYLR [PTTPAT04], the MIC values against A. baumannii ATCC19606 [1] (setting [4]) was 2,500 ug/ml. The “MIC (ATCC19606)” value in the series on A. baumannii ATCC19606 [1] (A. baumannii ATCC19606) is 2500 µg/mL.

With EYRSSWTGAYGASVLNKYIGMGRNS [PSTF02], in the series with A. baumannii ATCC19606 [1] (ATCC19606), the “MIC (ATCC19606)” value was > 5000 µg/mL and the MIC values is >5,000 ug/ml.

Consider `CC[C@H](C)CCCCC(=O)N[C@@H](CCN)C(=O)N[C@H](C(=O)N[C@@H](CCN)C(=O)N[C@H]1CCNC(=O)[C@H]([C@@H](C)O)NC(=O)[C@H](CCN)NC(=O)[C@H](CCN)NC(=O)[C@H](CC(C)C)NC(=O)[C@@H](CC(C)C)NC(=O)[C@H](CCN)NC1=O)[C@@H](C)O` [Colistin] (X1-[Dab]T[Dab][Dab][Dab][dL]L[Dab][Dab]T; lactam 4-C (inferred); N-terminus assumed), for which, in the series on A. baumannii ATCC19606 [1] (setting [5]), the “MIC values of outer membrane permeabilizers and colistin” value worked out at 2 µg/mL. In addition, the “Colistin Resistance MIC” value was determined as 1 µg/mL with MDR-AB, XDR-AB (strain AB57, XDR-AB / CR-AB); 0.5 µg/mL in the series on MDR-AB, XDR-AB (strain AB59, XDR-AB / CR-AB); 1 µg/mL in the series with MDR-AB, XDR-AB (strain AB329, XDR-AB / CR-AB); 8 µg/mL with MDR-AB, XDR-AB (strain CR65-40, MDR-AB / CR-AB); 4 µg/mL in the series on MDR-AB, XDR-AB (strain CR65-43, XDR-AB / CR-AB); 2 µg/mL with MDR-AB, XDR-AB (strain CR65-47, MDR-AB / CR-AB). The “Colistin Resistance MIC” value is 2 µg/mL with MDR-AB, XDR-AB (strain CR65-51, XDR-AB / CR-AB); 2 µg/mL with MDR-AB, XDR-AB (strain CR65-55, MDR-AB / CR-AB); 4 µg/mL in the series with MDR-AB, XDR-AB (strain CR65-71, MDR-AB / CR-AB); 2 µg/mL with MDR-AB, XDR-AB (strain CR65-74, XDR-AB / CR-AB). In the series on A. baumannii ATCC19606 [3], the MIC alone is 2 µg/mL.

As to `O=C(O)CC(O)C(=O)O` (racemic) [DL-Malic acid, reference compound], the “MIC values of outer membrane permeabilizers and colistin” value in the series with A. baumannii ATCC19606 [1] (setting [5]) was found to be 2500 µg/mL.

Regarding LNSKDYAGAAAQFLVWNKGRVKGKL [PE02-1], in the series on A. baumannii ATCC19606 [1] (ATCC19606), the “MIC (ATCC19606)” value is > 2500 µg/mL and the MIC values was >2,500 ug/ml.

With “LIAIQIAIKGMLNGWFTGVGFRRKR-NH2 [PE04-1-NH2]”, in the series on A. baumannii ATCC19606 [3], the MIC alone is 156.25 µg/mL.
